Experiments:
[1] = DPPH radical scavenging assay; format: biochemical; settings: 6 min incubation at room temperature, absorbance at 515 nm, triplicate
Procedure: A DPPH radical scavenging assay was conducted following a previously published protocol, as detailed in the Supporting Information.
Antioxidant Activity Tests. A DPPH radical scavenging assay was used according to a previously
published protocol.13 Serial dilutions of compounds (prepared in methanol) were incubated with
DPPH solution for 6 min at room temperature. The reduction in absorbance was measured with a
HITACHI U-2000 spectrophotometer (Hitachi Ltd., Tokyo, Japan) at 515 nm. […]

Vero E6 cells = assay: In vitro cytostatic effect, Alamar Blue viability assay, Vero E6; format: cell-based, African green monkey; settings: then 72 h culture
Procedure: (§1) The cytostatic effects of the compounds were evaluated in vitro on various cancer cells and noncancerous Vero E6 cells using the Alamar Blue viability assay, as detailed in the Supporting Information.
(§2) The cytostatic effects of MDiCQAs and FMGls were evaluated in vitro using the Alamar Blue viability assay on five human cancer cell lines: colorectal carcinoma (HT-29), glioma (U87), hepatocellular carcinoma (HepG2), promyelocytic leukemia (HL-60), and melanoma (A2058). They were also tested on nontumorous Vero E6 cells, kidney epithelial cells from an African green monkey, to evaluate the selectivity of the compounds. […] The two effective MDiCQAs (4 and 9) share a common structural feature: their central quinic acid core is substituted with caffeoyl moieties at the C-1 and C-5 positions and a malonyl group at the C-3 position. In contrast, the ineffective compound 7 has caffeoyl moieties at the same positions, but its malonyl group is attached to the C-4 position instead of C-3. Similarly, in the other ineffective MDiCQAs (5 and 6), the malonyl unit is also located at the C-4 position, while their caffeoyl groups are positioned at C-3 and C-5. […] The results also indicate a high degree of isomer-specificity in the cytostatic activity of MDiCQAs. […] In particular, the inhibition of Vero E6 cells by the MDiCQAs (4 and 9) can be considered as a strong effect, and that of the FMGl (3) as a weaker one, with IC50 values below 10 μM and around 40 μM, respectively. […]
(§3) Determination of the In Vitro Cytostatic Effects of Compounds. In vitro, the cytostatic effect of the compounds was determined on various human tumor- and non-human primate Vero E6 cells using Alamar Blue end-point viability assay. Cells were cultured in DMEM medium supplemented with 10% FBS, 2 mM L-glutamine, 50 IU/mL penicillin/50 µg/mL streptomycin antibiotic cocktail, 1 mM sodium pyruvate and 1% non-essential amino acid mixture at 37 °C in a humidified atmosphere with 5% CO2. At the confluent state, cells were plated into 96-well tissue culture plates with the initial cell number of 5.0×10^3 cells/well. Cells were treated with the compounds after 24 hours in a serum-free medium containing 1.0% (v/v) DMSO at 0.08 -100 µM concentration. Control cells were treated with serum-free medium or DMSO (c=1.0%, v/v ) containing serum-free medium. After overnight incubation, cells were washed twice with a serum-free medium; then, they were cultured for another 72 hours in the complete culturing medium at 37 °C. Following that, 22.5 µL Alamar Blue (resazurin sodium salt, Merck) solution (0.15 mg/mL in PBS) was added to each well and after 4 hrs of incubation, the fluorescence was measured at λEx = 530/30 and λEM = 610/10 nm using a Synergy H4 multi-mode microplate reader (BioTek). All measurements were performed in quadruplets, and the mean IC50 values and ± SEM were represented.

melanoma (A2058) = assay: In vitro cytostatic effect, Alamar Blue viability assay, A2058; format: cell-based, human; settings: A2058 cells, overnight treatment 0.08-100 µM, then 72 h culture
Procedure: as §1, §2, §3

[2] = test system: colorectal carcinoma (HT-29); assay: In vitro cytostatic effect, Alamar Blue viability assay, HT-29; format: cell-based, human; settings: HT-29 cells, overnight treatment 0.08-100 µM, then 72 h culture
Procedure: as §1, §2, §3

[3] = test system: hepatocellular carcinoma (HepG2); assay: In vitro cytostatic effect, Alamar Blue viability assay, HepG2; format: cell-based, human; settings: HepG2 cells, overnight treatment 0.08-100 µM, then 72 h culture
Procedure: as §1, §2, §3

glioma (U87) = assay: In vitro cytostatic effect, Alamar Blue viability assay, U87; format: cell-based, human; settings: U87 cells, overnight treatment 0.08-100 µM, then 72 h culture
Procedure: as §1, §2, §3

[4] = test system: promyelocytic leukemia (HL-60); assay: In vitro cytostatic effect, Alamar Blue viability assay, HL-60; format: cell-based, human; settings: HL-60 cells, overnight treatment 0.08-100 µM, then 72 h culture
Procedure: as §1, §2
as §3, with “All measurements were performed in quadruplets, and the mean IC50 values and ± SEM were represented.” left out

[5] = test system: noncancerous rat kidney epithelial cells (NRK); set-up: method as in earlier work; settings: previously reported, ref 40 (Slimestad et al., 2022); cited from earlier work
[6] = test system: human leukemia cells (MOLM-13); set-up: method as in earlier work; settings: MOLM-13 cells; previously reported; ref 40 (Slimestad et al., 2022); cited from earlier work
[7] = Chlorocebus sabaeus, Vero C1008, 72 h, overnight treatment 0.08-100 µM
[8] = overnight treatment 0.08-100 µM

Molecule | IC50 [1] | IC50 (Vero E6 cells; [7]) | IC50 (melanoma (A2058); Homo sapiens) | IC50 ([2]; Homo sapiens) | IC50 ([3]; Homo sapiens) | IC50 (glioma (U87); Homo sapiens, U-87 MG) | IC50 ([4]; Homo sapiens) | IC50 (Vero E6 cells; [8]) | also measured
O=C(O)CC(=O)OC[C@H]1O[C@@H](Oc2c(-c3ccc(O)c(O)c3)oc3cc(O)cc(O)c3c2=O)[C@H](O)[C@@H](O)[C@@H]1O [Compound 1, quercetin-3-O-(6″-O-malonyl)-β-D-glucoside] | 22.5 ± 0.6 µM |  |  |  |  |  |  |  | 
O=C(O)CC(=O)OC[C@H]1O[C@@H](Oc2cc(O)c3c(=O)cc(-c4ccc(O)c(O)c4)oc3c2)[C@H](OC(=O)CC(=O)O)[C@@H](O)[C@@H]1O [Compound 8, Luteolin-7-O-(2″,6″-di-O-malonyl)-β-D-glucoside] | 14.8 ± 0.6 µM | > 100 µM | > 100 µM | > 100 µM | > 100 µM | > 100 µM |  |  | 
Cc1c(C)c2c(c(C)c1O)CCC(C)(C(=O)O)O2 (stereo not drawn) [Trolox, reference compound] | 18.4 ± 0.1 µM |  |  |  |  |  |  |  | 
COc1cccc2c1C(=O)c1c(O)c3c(c(O)c1C2=O)C[C@@](O)(C(C)=O)C[C@@H]3O[C@H]1C[C@H](N)[C@H](O)[C@H](C)O1 [Daunomycin, reference compound] |  |  | 0.2 ± 0.01 µM | 0.9 ± 0.1 µM | 0.54 ± 0.15 µM | 0.6 ± 0.05 µM | 0.16 ± 0.03 µM |  | IC50 (Vero E6 cells; Chlorocebus sabaeus, Vero C1008, overnight treatment 0.08-100 µM): 1.7 ± 0.5 µM
1,3-dicaffeoyl-5-malonyl-δ-quinide |  |  |  |  |  |  |  |  | in vitro cytotoxicity [5]: nonselective in vitro cytotoxicity; in vitro cytotoxicity [6]: nonselective in vitro cytotoxicity
O=C(O)CC(=O)OC[C@H]1O[C@@H](Oc2c(-c3ccc(O)cc3)oc3cc(O)cc(O)c3c2=O)[C@H](O)[C@@H](O)[C@@H]1O [Compound 3, kaempferol-3-O-(6″-O-malonyl)-β-D-glucoside] | 233.9 ± 0.9 µM |  |  |  |  |  |  | 39.8 ± 2 µM | IC50 (melanoma (A2058)): 21 ± 3 µM; IC50 [4]: 51.4 ± 6.7 µM; IC50 [2]: > 100 µM; IC50 [3]: 27.5 ± 3.4 µM; IC50 (glioma (U87)): 86.3 ± 9.4 µM
O=C(O)CC(=O)OC1CC(OC(=O)C=Cc2ccc(O)c(O)c2)(C(=O)O)CC(OC(=O)C=Cc2ccc(O)c(O)c2)C1OC(=O)CC(=O)O (stereo not drawn) [Compound 9, 1,5-Dicaffeoyl-3,4-dimalonylquinic Acid] | 13.6 ± 0.4 µM | < 10 µM | 11.9 ± 2.2 µM | 47.9 ± 2.3 µM | > 100 µM | 48.5 ± 4.6 µM | > 100 µM | 9.5 ± 3.1 µM | 
O=C(O)CC(=O)OC[C@H]1O[C@@H](Oc2cc(O)c3c(=O)cc(-c4ccc(O)c(O)c4)oc3c2)[C@H](O)[C@@H](O)[C@@H]1O [Compound 2, luteolin-7-O-(6″-O-malonyl)-β-D-glucoside] | 7.8 ± 0.4 µM |  |  |  |  |  |  |  | 
O=C(O)CC(=O)OC1CC(OC(=O)C=Cc2ccc(O)c(O)c2)(C(=O)O)CC(OC(=O)C=Cc2ccc(O)c(O)c2)C1O (stereo not drawn) [Compound 4, 1,5-Dicaffeoyl-3-malonylquinic Acid] |  | < 10 µM | 13.5 ± 1.5 µM | > 100 µM | 25.6 ± 2.3 µM | > 100 µM | 29.7 ± 4.6 µM | 9.9 ± 1.4 µM | 

Source: paper PMC12489727, “Malonyl-Caffeoylquinic Acids and Malonyl-Flavonoid-Glucosides from Three Edible Apiaceae Plants Anthriscus Cerefolium, Anthriscus Sylvestris, and Chaerophyllum Bulbosum” (ACS Omega, 2025)
